According to ChEMBL document CHEMBL3991601, “The target landscape of clinical kinase drugs” (Science, 2017):
The source made the active and inactive calls. Rule as the data show it, for most assays here: actives have a measured Kd and inactives only a lower limit.

target: Receptor-interacting serine/threonine-protein kinase 2 (Homo sapiens, UniProt O43353)
Also: in the data inactive means no Kd found up to 30 µM.

Receptor-interacting serine/threonine-protein kinase 2, sequence (O43353 whole entry): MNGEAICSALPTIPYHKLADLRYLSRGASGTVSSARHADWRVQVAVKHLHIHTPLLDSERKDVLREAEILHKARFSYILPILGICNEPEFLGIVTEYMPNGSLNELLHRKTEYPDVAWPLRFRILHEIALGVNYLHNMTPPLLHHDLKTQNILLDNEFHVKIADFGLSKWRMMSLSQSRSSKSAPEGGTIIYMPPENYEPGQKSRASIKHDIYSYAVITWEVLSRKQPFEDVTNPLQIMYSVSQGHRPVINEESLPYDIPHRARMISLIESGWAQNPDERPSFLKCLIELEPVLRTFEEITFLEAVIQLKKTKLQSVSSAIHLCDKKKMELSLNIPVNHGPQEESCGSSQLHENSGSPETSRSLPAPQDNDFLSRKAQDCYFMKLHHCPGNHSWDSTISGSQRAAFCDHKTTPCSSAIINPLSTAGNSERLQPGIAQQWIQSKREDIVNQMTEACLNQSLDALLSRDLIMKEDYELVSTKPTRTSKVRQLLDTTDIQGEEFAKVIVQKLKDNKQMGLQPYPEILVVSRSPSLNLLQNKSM

| Compound | Kd |
| --- | --- |
| C=CC(=O)N1CCC(Oc2cc3c(Nc4ccc(Cl)c(Cl)c4F)ncnc3cc2OC)CC1 [POZIOTINIB] | 0.048 µM (active) |
| CN(C)C(=O)c1cc2cnc(Nc3ccc(N4CCNCC4)cn3)nc2n1C1CCCC1 [RIBOCICLIB] | > 30 µM (inactive) |
| COc1cc(OC)c(/C=C/S(=O)(=O)Cc2ccc(OC)c(NCC(=O)O)c2)c(OC)c1 [RIGOSERTIB] | > 30 µM (inactive) |

target: Tyrosine-protein kinase HCK (Homo sapiens, UniProt P08631)
Sequence (P08631 whole entry): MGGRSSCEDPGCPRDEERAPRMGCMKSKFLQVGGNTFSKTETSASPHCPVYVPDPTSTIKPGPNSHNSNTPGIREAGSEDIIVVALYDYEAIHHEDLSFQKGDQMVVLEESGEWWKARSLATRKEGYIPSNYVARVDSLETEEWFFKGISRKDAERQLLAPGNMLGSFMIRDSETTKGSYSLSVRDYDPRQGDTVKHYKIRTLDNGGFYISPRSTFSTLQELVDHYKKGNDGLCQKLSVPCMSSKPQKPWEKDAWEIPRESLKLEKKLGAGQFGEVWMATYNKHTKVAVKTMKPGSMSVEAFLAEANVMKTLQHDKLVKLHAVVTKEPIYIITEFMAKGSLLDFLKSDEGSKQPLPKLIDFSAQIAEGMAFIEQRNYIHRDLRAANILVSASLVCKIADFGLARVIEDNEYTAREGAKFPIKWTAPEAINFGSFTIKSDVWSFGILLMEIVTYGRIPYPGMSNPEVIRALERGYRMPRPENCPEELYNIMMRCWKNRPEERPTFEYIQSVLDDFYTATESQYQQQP

| Compound | Kd |
| --- | --- |
| C=CC(=O)N1CCC(Oc2cc3c(Nc4ccc(Cl)c(Cl)c4F)ncnc3cc2OC)CC1 [POZIOTINIB] | > 30 µM (inactive) |
| CN(C)C(=O)c1cc2cnc(Nc3ccc(N4CCNCC4)cn3)nc2n1C1CCCC1 [RIBOCICLIB] | > 30 µM (inactive) |
| COc1cc(OC)c(/C=C/S(=O)(=O)Cc2ccc(OC)c(NCC(=O)O)c2)c(OC)c1 [RIGOSERTIB] | > 30 µM (inactive) |

target: T1, Mitogen-activated protein kinase kinase kinase kinase 2 (Homo sapiens, UniProt Q12851)
T1 sequence (Q12851 whole entry): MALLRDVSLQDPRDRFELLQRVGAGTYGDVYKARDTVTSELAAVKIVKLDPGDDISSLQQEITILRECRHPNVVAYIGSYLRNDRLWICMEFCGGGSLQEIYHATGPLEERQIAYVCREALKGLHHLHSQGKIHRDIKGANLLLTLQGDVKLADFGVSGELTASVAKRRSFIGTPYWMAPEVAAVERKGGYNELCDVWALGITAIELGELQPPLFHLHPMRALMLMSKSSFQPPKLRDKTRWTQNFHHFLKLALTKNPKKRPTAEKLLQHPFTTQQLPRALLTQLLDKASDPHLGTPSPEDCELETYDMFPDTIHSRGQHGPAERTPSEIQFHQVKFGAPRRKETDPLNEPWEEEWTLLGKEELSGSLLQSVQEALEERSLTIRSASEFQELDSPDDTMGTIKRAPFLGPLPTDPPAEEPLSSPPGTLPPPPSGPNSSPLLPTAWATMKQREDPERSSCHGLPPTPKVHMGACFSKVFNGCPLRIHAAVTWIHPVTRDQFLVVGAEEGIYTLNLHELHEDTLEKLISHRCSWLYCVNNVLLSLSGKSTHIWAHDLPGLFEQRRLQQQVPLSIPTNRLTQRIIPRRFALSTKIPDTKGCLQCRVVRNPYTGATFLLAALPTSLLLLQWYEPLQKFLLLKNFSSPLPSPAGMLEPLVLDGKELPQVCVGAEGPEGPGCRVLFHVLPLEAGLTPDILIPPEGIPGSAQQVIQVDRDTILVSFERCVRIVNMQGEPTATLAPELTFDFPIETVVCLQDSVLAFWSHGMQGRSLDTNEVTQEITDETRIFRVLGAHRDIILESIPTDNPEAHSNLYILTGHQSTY

| Compound | Kd |
| --- | --- |
| C=CC(=O)N1CCC(Oc2cc3c(Nc4ccc(Cl)c(Cl)c4F)ncnc3cc2OC)CC1 [POZIOTINIB] | > 30 µM (inactive) |
| CN(C)C(=O)c1cc2cnc(Nc3ccc(N4CCNCC4)cn3)nc2n1C1CCCC1 [RIBOCICLIB] | > 30 µM (inactive) |
| COc1cc(OC)c(/C=C/S(=O)(=O)Cc2ccc(OC)c(NCC(=O)O)c2)c(OC)c1 [RIGOSERTIB] | > 30 µM (inactive) |

target: Protein kinase C delta type (Homo sapiens, UniProt Q05655)
Sequence (Q05655 whole entry): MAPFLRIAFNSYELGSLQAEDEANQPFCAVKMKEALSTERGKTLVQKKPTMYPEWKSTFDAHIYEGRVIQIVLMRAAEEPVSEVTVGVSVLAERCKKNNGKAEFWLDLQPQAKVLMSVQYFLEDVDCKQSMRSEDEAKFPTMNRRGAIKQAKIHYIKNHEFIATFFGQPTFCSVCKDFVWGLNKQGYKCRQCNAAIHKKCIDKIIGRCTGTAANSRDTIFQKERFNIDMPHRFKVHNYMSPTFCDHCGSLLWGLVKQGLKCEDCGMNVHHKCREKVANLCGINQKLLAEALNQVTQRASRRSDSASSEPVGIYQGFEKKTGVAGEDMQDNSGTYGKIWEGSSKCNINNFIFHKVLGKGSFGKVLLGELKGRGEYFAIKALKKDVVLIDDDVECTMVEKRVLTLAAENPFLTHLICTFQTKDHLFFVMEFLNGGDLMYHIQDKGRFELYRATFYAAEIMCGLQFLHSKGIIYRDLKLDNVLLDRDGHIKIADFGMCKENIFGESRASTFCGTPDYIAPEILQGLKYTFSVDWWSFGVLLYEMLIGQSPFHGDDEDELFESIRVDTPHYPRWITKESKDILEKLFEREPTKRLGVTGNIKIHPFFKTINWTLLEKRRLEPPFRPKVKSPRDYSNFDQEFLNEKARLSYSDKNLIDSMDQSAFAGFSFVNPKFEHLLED

| Compound | Kd |
| --- | --- |
| C=CC(=O)N1CCC(Oc2cc3c(Nc4ccc(Cl)c(Cl)c4F)ncnc3cc2OC)CC1 [POZIOTINIB] | > 30 µM (inactive) |
| CN(C)C(=O)c1cc2cnc(Nc3ccc(N4CCNCC4)cn3)nc2n1C1CCCC1 [RIBOCICLIB] | > 30 µM (inactive) |
| COc1cc(OC)c(/C=C/S(=O)(=O)Cc2ccc(OC)c(NCC(=O)O)c2)c(OC)c1 [RIGOSERTIB] | > 30 µM (inactive) |

target: T2, Serine/threonine-protein kinase Nek2 (Homo sapiens, UniProt P51955)
T2 sequence (P51955 whole entry): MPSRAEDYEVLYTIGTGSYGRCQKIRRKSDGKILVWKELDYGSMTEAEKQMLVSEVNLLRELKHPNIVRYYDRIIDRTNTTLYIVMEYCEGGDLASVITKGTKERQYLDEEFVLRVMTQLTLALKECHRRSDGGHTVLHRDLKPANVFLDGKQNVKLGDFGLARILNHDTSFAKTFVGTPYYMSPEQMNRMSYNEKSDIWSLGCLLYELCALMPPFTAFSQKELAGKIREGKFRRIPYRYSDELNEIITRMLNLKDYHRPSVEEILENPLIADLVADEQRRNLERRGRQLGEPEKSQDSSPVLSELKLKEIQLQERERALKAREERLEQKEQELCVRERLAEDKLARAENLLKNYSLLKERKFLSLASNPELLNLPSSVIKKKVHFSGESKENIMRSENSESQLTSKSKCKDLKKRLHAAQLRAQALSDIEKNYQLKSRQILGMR

| Compound | Kd |
| --- | --- |
| C=CC(=O)N1CCC(Oc2cc3c(Nc4ccc(Cl)c(Cl)c4F)ncnc3cc2OC)CC1 [POZIOTINIB] | > 30 µM (inactive) |
| CN(C)C(=O)c1cc2cnc(Nc3ccc(N4CCNCC4)cn3)nc2n1C1CCCC1 [RIBOCICLIB] | > 30 µM (inactive) |
| COc1cc(OC)c(/C=C/S(=O)(=O)Cc2ccc(OC)c(NCC(=O)O)c2)c(OC)c1 [RIGOSERTIB] | > 30 µM (inactive) |

target: Cyclin-dependent kinase 3 (Homo sapiens, UniProt Q00526)
Sequence (Q00526 whole entry): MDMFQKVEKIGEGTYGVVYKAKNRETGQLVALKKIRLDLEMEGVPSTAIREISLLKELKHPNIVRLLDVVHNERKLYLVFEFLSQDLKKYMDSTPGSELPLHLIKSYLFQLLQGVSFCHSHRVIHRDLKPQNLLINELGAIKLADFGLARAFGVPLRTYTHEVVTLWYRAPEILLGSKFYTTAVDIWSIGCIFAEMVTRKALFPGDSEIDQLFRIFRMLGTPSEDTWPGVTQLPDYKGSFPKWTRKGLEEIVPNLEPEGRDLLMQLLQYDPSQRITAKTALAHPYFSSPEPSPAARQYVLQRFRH

| Compound | Kd |
| --- | --- |
| C=CC(=O)N1CCC(Oc2cc3c(Nc4ccc(Cl)c(Cl)c4F)ncnc3cc2OC)CC1 [POZIOTINIB] | > 30 µM (inactive) |
| CN(C)C(=O)c1cc2cnc(Nc3ccc(N4CCNCC4)cn3)nc2n1C1CCCC1 [RIBOCICLIB] | > 30 µM (inactive) |
| COc1cc(OC)c(/C=C/S(=O)(=O)Cc2ccc(OC)c(NCC(=O)O)c2)c(OC)c1 [RIGOSERTIB] | > 30 µM (inactive) |

target: Midasin (Homo sapiens, UniProt Q9NU22)

| Compound | Kd |
| --- | --- |
| C=CC(=O)N1CCC(Oc2cc3c(Nc4ccc(Cl)c(Cl)c4F)ncnc3cc2OC)CC1 [POZIOTINIB] | > 30 µM (inactive) |
| CN(C)C(=O)c1cc2cnc(Nc3ccc(N4CCNCC4)cn3)nc2n1C1CCCC1 [RIBOCICLIB] | > 30 µM (inactive) |
| COc1cc(OC)c(/C=C/S(=O)(=O)Cc2ccc(OC)c(NCC(=O)O)c2)c(OC)c1 [RIGOSERTIB] | > 30 µM (inactive) |

target: Mitogen-activated protein kinase 7 (Homo sapiens, UniProt Q13164)
Sequence (Q13164 whole entry): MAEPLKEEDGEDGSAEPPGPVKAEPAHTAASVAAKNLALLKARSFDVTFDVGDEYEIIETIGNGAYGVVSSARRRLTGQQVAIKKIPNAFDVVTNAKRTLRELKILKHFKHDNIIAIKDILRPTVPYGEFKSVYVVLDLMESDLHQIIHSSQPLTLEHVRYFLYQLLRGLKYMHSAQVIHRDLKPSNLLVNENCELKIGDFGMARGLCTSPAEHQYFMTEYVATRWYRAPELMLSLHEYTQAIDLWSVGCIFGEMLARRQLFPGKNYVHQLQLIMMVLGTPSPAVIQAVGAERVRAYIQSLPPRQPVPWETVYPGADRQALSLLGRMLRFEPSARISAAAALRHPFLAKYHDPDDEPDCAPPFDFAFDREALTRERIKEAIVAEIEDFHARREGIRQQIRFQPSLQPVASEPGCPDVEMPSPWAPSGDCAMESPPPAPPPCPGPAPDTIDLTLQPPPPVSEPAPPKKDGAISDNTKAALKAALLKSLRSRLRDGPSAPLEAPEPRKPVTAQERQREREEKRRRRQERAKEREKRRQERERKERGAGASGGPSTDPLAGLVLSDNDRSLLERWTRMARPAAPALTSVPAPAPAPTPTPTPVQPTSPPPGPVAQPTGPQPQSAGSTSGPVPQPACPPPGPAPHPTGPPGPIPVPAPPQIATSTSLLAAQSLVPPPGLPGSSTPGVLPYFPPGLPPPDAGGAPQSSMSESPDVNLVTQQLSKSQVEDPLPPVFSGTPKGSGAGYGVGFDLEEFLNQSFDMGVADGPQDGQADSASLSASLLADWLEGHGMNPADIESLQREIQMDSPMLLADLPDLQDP

| Compound | Kd |
| --- | --- |
| C=CC(=O)N1CCC(Oc2cc3c(Nc4ccc(Cl)c(Cl)c4F)ncnc3cc2OC)CC1 [POZIOTINIB] | > 30 µM (inactive) |
| CN(C)C(=O)c1cc2cnc(Nc3ccc(N4CCNCC4)cn3)nc2n1C1CCCC1 [RIBOCICLIB] | > 30 µM (inactive) |
| COc1cc(OC)c(/C=C/S(=O)(=O)Cc2ccc(OC)c(NCC(=O)O)c2)c(OC)c1 [RIGOSERTIB] | > 30 µM (inactive) |

target: T3, Serine/threonine-protein kinase LATS1 (Homo sapiens, UniProt O95835)
T3 sequence (O95835 whole entry): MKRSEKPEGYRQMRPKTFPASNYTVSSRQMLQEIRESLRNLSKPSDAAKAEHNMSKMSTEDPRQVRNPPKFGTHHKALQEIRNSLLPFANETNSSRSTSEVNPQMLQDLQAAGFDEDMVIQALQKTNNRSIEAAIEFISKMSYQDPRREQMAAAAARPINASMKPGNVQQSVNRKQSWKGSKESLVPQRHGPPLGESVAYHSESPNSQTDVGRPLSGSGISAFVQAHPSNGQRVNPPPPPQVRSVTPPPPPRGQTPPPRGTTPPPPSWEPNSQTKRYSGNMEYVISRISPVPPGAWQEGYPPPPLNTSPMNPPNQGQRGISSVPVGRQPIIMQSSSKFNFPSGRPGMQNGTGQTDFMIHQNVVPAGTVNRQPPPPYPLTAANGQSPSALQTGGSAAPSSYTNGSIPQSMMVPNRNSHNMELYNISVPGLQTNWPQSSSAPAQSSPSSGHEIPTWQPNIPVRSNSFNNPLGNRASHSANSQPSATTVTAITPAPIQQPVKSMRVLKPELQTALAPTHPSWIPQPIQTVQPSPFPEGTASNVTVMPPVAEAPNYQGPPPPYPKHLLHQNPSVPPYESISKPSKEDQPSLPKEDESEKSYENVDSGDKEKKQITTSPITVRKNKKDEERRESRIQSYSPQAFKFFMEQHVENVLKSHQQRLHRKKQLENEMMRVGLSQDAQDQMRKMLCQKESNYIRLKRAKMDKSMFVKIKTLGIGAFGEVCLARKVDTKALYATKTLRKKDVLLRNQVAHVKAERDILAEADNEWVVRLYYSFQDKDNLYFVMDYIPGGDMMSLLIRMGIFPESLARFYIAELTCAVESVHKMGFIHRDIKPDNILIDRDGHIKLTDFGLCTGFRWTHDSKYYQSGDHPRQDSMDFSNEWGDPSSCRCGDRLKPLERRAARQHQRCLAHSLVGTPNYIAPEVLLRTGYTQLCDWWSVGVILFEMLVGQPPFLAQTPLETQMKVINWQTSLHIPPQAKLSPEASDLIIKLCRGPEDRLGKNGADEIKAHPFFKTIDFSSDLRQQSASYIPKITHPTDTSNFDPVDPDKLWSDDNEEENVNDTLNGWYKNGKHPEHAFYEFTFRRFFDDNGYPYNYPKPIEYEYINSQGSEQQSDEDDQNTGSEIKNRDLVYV

| Compound | Kd |
| --- | --- |
| C=CC(=O)N1CCC(Oc2cc3c(Nc4ccc(Cl)c(Cl)c4F)ncnc3cc2OC)CC1 [POZIOTINIB] | > 30 µM (inactive) |
| CN(C)C(=O)c1cc2cnc(Nc3ccc(N4CCNCC4)cn3)nc2n1C1CCCC1 [RIBOCICLIB] | > 30 µM (inactive) |
| COc1cc(OC)c(/C=C/S(=O)(=O)Cc2ccc(OC)c(NCC(=O)O)c2)c(OC)c1 [RIGOSERTIB] | > 30 µM (inactive) |

target: LIM domain kinase 2 (Homo sapiens, UniProt P53671)
Sequence (P53671 whole entry, the tested form may be a part): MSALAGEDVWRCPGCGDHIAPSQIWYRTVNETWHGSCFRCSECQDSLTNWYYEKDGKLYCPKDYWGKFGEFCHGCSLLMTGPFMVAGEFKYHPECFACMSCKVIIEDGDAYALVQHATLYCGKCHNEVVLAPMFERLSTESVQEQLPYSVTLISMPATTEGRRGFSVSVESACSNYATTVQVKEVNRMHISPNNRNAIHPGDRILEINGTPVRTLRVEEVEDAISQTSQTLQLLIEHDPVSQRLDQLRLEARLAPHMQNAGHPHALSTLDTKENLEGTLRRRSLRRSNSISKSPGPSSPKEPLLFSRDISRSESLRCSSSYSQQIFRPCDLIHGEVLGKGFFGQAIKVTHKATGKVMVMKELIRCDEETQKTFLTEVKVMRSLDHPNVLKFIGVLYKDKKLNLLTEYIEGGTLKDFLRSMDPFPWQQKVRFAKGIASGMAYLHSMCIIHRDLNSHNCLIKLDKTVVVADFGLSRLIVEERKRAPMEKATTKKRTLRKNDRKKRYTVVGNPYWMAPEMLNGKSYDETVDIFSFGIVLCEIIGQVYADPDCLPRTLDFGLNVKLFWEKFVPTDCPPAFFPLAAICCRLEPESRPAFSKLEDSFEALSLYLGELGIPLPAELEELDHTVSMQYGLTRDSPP

| Compound | Kd |
| --- | --- |
| C=CC(=O)N1CCC(Oc2cc3c(Nc4ccc(Cl)c(Cl)c4F)ncnc3cc2OC)CC1 [POZIOTINIB] | > 30 µM (inactive) |
| CN(C)C(=O)c1cc2cnc(Nc3ccc(N4CCNCC4)cn3)nc2n1C1CCCC1 [RIBOCICLIB] | > 30 µM (inactive) |
| COc1cc(OC)c(/C=C/S(=O)(=O)Cc2ccc(OC)c(NCC(=O)O)c2)c(OC)c1 [RIGOSERTIB] | > 30 µM (inactive) |
